From US12319954B2, “Morphinan compounds” (Concert Pharmaceuticals, Inc., priority 2007, dated 2025)

Columns and labels:
[1] = Metabolic stability in human liver microsomes; details: for remained intact after 30 minutes of incubation: 0.25 μM compound, 2 mg/mL human liver microsomes, FIG. 2
Protocol: (§1) The objectives of this study were to determine the metabolic stability of the test compounds in pooled human and […] liver microsomal incubations. Samples of the test compounds, exposed to pooled human or […] liver microsomes, were analyzed using HPLC-MS (or MS/MS) detection. For determining metabolic stability, multiple reaction monitoring (MRM) was used to measure the disappearance of the test compounds.
(§2) Experimental Procedures: Human liver and Cynomolgus monkey liver microsomes were obtained from XenoTech, LLC (Lenexa, KS). The incubation mixtures were prepared as follows:
(§3) Incubation of Test Compounds with Liver Microsomes: The reaction mixture, minus cofactors, was prepared. An aliquot of the reaction mixture (without cofactors) was incubated in a shaking water bath at 37° C. for 3 minutes. Another aliquot of the reaction mixture was prepared as the negative control. The test compound was added into both the reaction mixture and the negative control at a final concentration of 0.10, 0.25, or 1 μM. An aliquot of the reaction mixture was prepared as a blank control, by the addition of plain organic solvent (no test compound is added). The reaction was initiated by the addition of cofactors (not added to the negative controls), and then incubated in a shaking water bath at 37° C. Aliquots (200 μL) were withdrawn in triplicate at multiple time points and combined with 800 μL of ice-cold 50/50 acetonitrile/dH2O to terminate the reaction.
All samples were analyzed using LC-MS (or MS/MS). An LC-MRM-MS/MS method is used for metabolic stability. For testing in cynomolgus monkey liver microsomes, a final concentration of 1 μM of each compound and 0.5 mg/mL of microsomes were used.

[2] = Plasma levels in cynomolgus monkeys after oral BID co-dosing of Compound 101 and dextromethorphan, with or without quinidine; type: in vivo
Protocol: Blood Sample Collection—Blood sampling tOOK place on Day 6 after oral administration of the last dose (Dose 11). Blood (approximately 1 mL) was collected via femoral vein into tubes containing sodium heparin anticoagulant at 0.25, 0.5, 1, 1.5, 2, 3.5, 6 and 8 hours. The plasma was separated via centrifugation and stored in −20° C. before analysis.
Dilution using cynomolgus monkey plasma blank were applied if the sample concentration was over the ULOQ of calibration standard curve. The data acquisition and control system was created using Analyst 1.4 software from ABI Inc.

[3] = monkeys, FIG. 6
Protocol: OBJECTIVE—The objective of this study was to collect plasma samples from Cynomolgus Monkeys at various time points following oral administration of test articles in combination. The samples were used for the determination of plasma drug levels by LC/MS/MS for estimating pharmacokinetic parameters. This study was conducted in accordance with Shanghai Medicilon Inc. Standard Operating Procedures (SOPs). The Sponsor provided the test compounds and internal standard compound.
EXPERIMENTAL DESIGN—Four Cynomolgus Monkeys were used in this study.
The combination dose was prepared by mixing both by 1:1 to yield a concentration of 1 mg/mL for each compound. […] Quinidine was prepared in DMI:EtOH:PG:water (10:15:35:40, v/v/v/v) at 3 mg/mL and dosed separately. The doses were given BID orally with an interval of 12 hours. […] Dosing volume of Quinidine was determined based on the dose each animal was getting. Dose volumes for each test animal was determined based on individual body weight. Body weights were taken on each day of dose administration and were be recorded.
Urine Sample Collection—Urine samples in between two doses on Day 5 (for 12 hours between doses 9 and 10) were collected in a plate and quantified by volume. After collection, the urine samples were be stored in −20° C. and then shipped back to client. […]

[4] = Metabolic stability in cynomolgus monkey liver microsomes; details: 1 μM compound, 0.5 mg/mL microsomes; FIG. 1
Protocol: as §1, §2
as §3, with “Aliquots (200 μL) were withdrawn in triplicate at multiple time points and combined with 800 μL of ice-cold 50/50 acetonitrile/dH2O to terminate the reaction.” left out
All samples were analyzed using LC-MS (or MS/MS). […]

[5] = biological target: T1, Human CYP2D6+P450 Reductase SUPERSOMES (Homo sapiens, UniProt P10635); experiment: Metabolic stability in CYP2D6 SUPERSOMES; type: in vitro ADME; details: 0.1 μM compound, 20 minutes
T1 construct: purchased GenTest (Woburn, MA, USA); host or cells: insect cells (inferred from the negative control, insect cell microsomes)
Protocol: Human CYP2D6+P450 Reductase SUPERSOMES™ were purchased from GenTest (Woburn, MA, USA). […] Aliquots (50 μL) were removed from each sample and placed in wells of a multi-well plate at 0, 2, 5, 7, 12, 20, and 30 minutes and to each was added 50 μL of ice cold acetonitrile with 3 μM haloperidol as an internal standard to stop the reaction.
Plates containing the removed aliquots were then placed in −20° C. freezer for 15 minutes to cool. After cooling, 100 μL of deionized water was added to all wells in the plate. Plates were then spun in the centrifuge for 10 minutes at 3000 rpm. A portion of the supernatant (100 μL) was then removed, placed in a new plate and analyzed using Mass Spectrometry.

T1 sequence (P10635 whole entry): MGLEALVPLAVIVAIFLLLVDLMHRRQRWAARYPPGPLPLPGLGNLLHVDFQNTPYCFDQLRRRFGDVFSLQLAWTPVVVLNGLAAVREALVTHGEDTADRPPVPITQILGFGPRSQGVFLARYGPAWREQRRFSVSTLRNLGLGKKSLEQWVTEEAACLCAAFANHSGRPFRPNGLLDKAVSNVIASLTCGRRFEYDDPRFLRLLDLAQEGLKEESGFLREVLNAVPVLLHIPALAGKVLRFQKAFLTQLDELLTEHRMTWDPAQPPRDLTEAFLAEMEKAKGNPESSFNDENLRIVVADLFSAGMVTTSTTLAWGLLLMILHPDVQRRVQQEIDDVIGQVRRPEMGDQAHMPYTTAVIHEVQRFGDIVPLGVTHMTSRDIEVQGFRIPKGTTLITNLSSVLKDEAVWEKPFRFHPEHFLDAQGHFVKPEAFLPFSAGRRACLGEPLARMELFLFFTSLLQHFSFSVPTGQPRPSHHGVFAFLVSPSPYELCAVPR

| Molecule | remained intact after 30 minutes of incubation [1] | plasma levels compared to dextromethorphan ([2]; co administered with the same amount of quinidine, FIG. 5) | metabolism to deuterated dextrorphan isotopologues (plasma) ([2]; no quinidine, FIG. 4) | urine level of parent compound compared to dextromethorphan ([3]; at the same quinidine concentration) | stability in monkey liver microsomes compared with dextromethorphan [4] | intact compound at the 20 minute time point with 2D6 Supersomes [5] | urine levels, effect of quinidine concentration [3] | remained intact after a 30 minute exposure ([1]; 0.5 mg/mL human liver microsomes) |
| --- | --- | --- | --- | --- | --- | --- | --- | --- |
| [2H]C([2H])([2H])Oc1ccc2c(c1)[C@]13CCCC[C@@H]1[C@H](C2)N(C([2H])([2H])[2H])CC3 [Compound 101, (+)-3-d3-methoxy-17-d3-methyl-(9α, 13α, 14α)-morphinan] | approximately 45% | greater than dextromethorphan plasma levels | reduced relative to metabolism of dextromethorphan to dextrorphan | less Compound 101 in the urine than dextromethorphan | greater stability than dextromethorphan |  |  |  |
| COc1ccc2c(c1)[C@]13CCCC[C@@H]1[C@H](C2)N(C)CC3 [Dextromethorphan, (+)-3-methoxy-17-methyl-(9α, 13α, 14α)-morphinan, reference compound] | about 33% |  |  |  |  | no intact dextromethorphan could be detected | affected by increasing quinidine concentration |  |
| (+)-3-d3-methoxy-17-methyl-(9α, 13α, 14α)-morphinan [Compound 100] | ~42% |  |  |  | greater stability than dextromethorphan |  |  | ~71% |
